Data as given in ChEMBL document CHEMBL1150678, “Bioactive sterols from the starfish Certonardoa semiregularis” (2003).
≈ marks a conversion by molar mass, not a printed value.

Tests used:
[1] = system: Escherichia coli; assay: Antimicrobial activity against Escherichia coli TEM isolate after 18 hrs; type: functional
[2] = system: Escherichia coli; assay: Antimicrobial activity against Escherichia coli 1507E isolate after 18 hrs; type: functional
[3] = system: Pseudomonas aeruginosa; assay: Antimicrobial activity against Pseudomonas aeruginosa 9027 isolate after 18 hrs; type: functional
[4] = system: Salmonella typhimurium; assay: Antimicrobial activity against Salmonella Typhimurium after 18 hrs; type: functional, Salmonella enterica subsp. enterica serovar Typhimurium; conditions: Salmonella enterica
[5] = system: Klebsiella oxytoca; assay: Antimicrobial activity against Klebsiella oxytoca 1082E after 18 hrs; type: functional
[6] = system: Klebsiella aerogenes; assay: Antimicrobial activity against Klebsiella aerogenes 1522E after 18 hrs; type: functional
[7] = system: Enterobacter cloacae; assay: Antimicrobial activity against Enterobacter cloacae P99 after 18 hrs; type: functional
[8] = system: Enterobacter cloacae; assay: Antimicrobial activity against Enterobacter cloacae 1321E after 18 hrs; type: functional
[9] = system: Staphylococcus aureus; assay: Antimicrobial activity against Staphylococcus aureus 285 isolate after 18 hrs; type: functional
[10] = system: Escherichia coli; assay: Antimicrobial activity against Escherichia coli DC0 isolate after 18 hrs; type: functional
[11] = system: Escherichia coli; assay: Antimicrobial activity against Escherichia coli 078 isolate after 18 hrs; type: functional
[12] = system: Staphylococcus aureus; assay: Antimicrobial activity against Staphylococcus aureus 503 isolate after 18 hrs; type: functional
[13] = system: Streptococcus pyogenes; assay: Antimicrobial activity against Streptococcus pyogenes 77A isolate after 18 hrs; type: functional
[14] = system: Pseudomonas aeruginosa; assay: Antimicrobial activity against Pseudomonas aeruginosa 1592E isolate after 18 hrs; type: functional
[15] = system: Pseudomonas aeruginosa; assay: Antimicrobial activity against Pseudomonas aeruginosa 1771 isolate after 18 hrs; type: functional
[16] = system: Pseudomonas aeruginosa; assay: Antimicrobial activity against Pseudomonas aeruginosa 1771M isolate after 18 hrs; type: functional
[17] = system: Enterococcus faecium; assay: Antimicrobial activity against Streptococcus faecium MD8b isolate after 18 hrs; type: functional
[18] = system: Staphylococcus aureus; assay: Antimicrobial activity against Staphylococcus aureus SG511 isolate after 18 hrs; type: functional
[19] = system: A549; assay: Cytotoxicity against human A549 cells; type: functional; conditions: read-out: ED50 (the source's name)
[20] = system: SK-OV-3; assay: Cytotoxicity against human SKOV3 cells; type: functional; conditions: read-out: ED50 (the source's name)
[21] = system: SK-MEL-2; assay: Cytotoxicity against human SK-MEL-2 cells; type: functional; conditions: read-out: ED50 (the source's name)
[22] = system: XF498; assay: Cytotoxicity against human XF498 cells; type: functional; conditions: read-out: ED50 (the source's name)
[23] = system: HCT-15; assay: Cytotoxicity against human HCT15 cells; type: functional; conditions: read-out: ED50 (the source's name)
[24] = system: Streptococcus pyogenes; assay: Antimicrobial activity against Streptococcus pyogenes 308A isolate after 18 hrs; type: functional
[25] = system: Escherichia coli; assay: Antimicrobial activity against Escherichia coli DC2 isolate after 18 hrs; type: functional

CC(C)[C@@H](O)CC[C@@H](C)[C@H]1C[C@@H](O)[C@@H]2[C@]1(C)CC[C@@H]1[C@@]3(C)CC[C@H](O)C[C@@H]3[C@@H](O)C[C@]12O
MIC [1]: > 25 µg/mL
MIC [2]: > 25 µg/mL
MIC [3]: > 25 µg/mL
MIC [4]: > 25 µg/mL
MIC [5]: > 25 µg/mL
MIC [6]: > 25 µg/mL
MIC [7]: > 25 µg/mL
MIC [8]: > 25 µg/mL
MIC [9]: > 25 µg/mL
MIC [10]: > 25 µg/mL
MIC [11]: > 25 µg/mL
MIC [12]: > 25 µg/mL
MIC [13]: > 25 µg/mL
MIC [14]: > 25 µg/mL
MIC [15]: 25 µg/mL (≈ 55.2 µM)
MIC [16]: 25 µg/mL (≈ 55.2 µM)
MIC [17]: > 25 µg/mL
MIC [18]: > 25 µg/mL
EC50 [19]: 11.3 µg/mL (≈ 25 µM)
EC50 [20]: 15.6 µg/mL (≈ 34.5 µM)
EC50 [21]: 12.4 µg/mL (≈ 27.4 µM)
EC50 [22]: 11.4 µg/mL (≈ 25.2 µM)
EC50 [23]: 19.4 µg/mL (≈ 42.9 µM)
MIC [24]: 12.5 µg/mL (≈ 27.6 µM)
MIC [25]: > 25 µg/mL

C=C(CC[C@@H](C)[C@H]1C[C@@H](O)[C@@H]2[C@]1(C)CC[C@@H]1[C@@]3(C)CC[C@H](O)[C@H](O)[C@@H]3[C@@H](O)C[C@]12O)[C@H](C)CO [CERTONARDOSTEROL A]
MIC [1]: > 25 µg/mL
MIC [2]: > 25 µg/mL
MIC [3]: > 25 µg/mL
MIC [4]: > 25 µg/mL
MIC [5]: > 25 µg/mL
MIC [6]: > 25 µg/mL
MIC [7]: > 25 µg/mL
MIC [8]: > 25 µg/mL
MIC [9]: > 25 µg/mL
MIC [10]: > 25 µg/mL
MIC [11]: > 25 µg/mL
MIC [12]: > 25 µg/mL
MIC [13]: > 25 µg/mL
MIC [14]: > 25 µg/mL
MIC [15]: 25 µg/mL (≈ 52 µM)
MIC [16]: 25 µg/mL (≈ 52 µM)
MIC [17]: > 25 µg/mL
MIC [18]: > 25 µg/mL
EC50 [19]: 3.1 µg/mL (≈ 6.45 µM)
EC50 [20]: 7.3 µg/mL (≈ 15.2 µM)
EC50 [21]: 4.1 µg/mL (≈ 8.53 µM)
EC50 [22]: 4.4 µg/mL (≈ 9.15 µM)
EC50 [23]: 4.5 µg/mL (≈ 9.36 µM)
MIC [24]: 25 µg/mL (≈ 52 µM)
MIC [25]: > 25 µg/mL

C=C(CC[C@@H](C)[C@H]1C[C@@H](O)[C@H]2[C@@H]3C[C@H](O)[C@H]4[C@@H](O)[C@@H](O)CC[C@]4(C)[C@H]3CC[C@@]21C)[C@H](C)CO [CERTONARDOSTEROL B]
MIC [1]: > 25 µg/mL
MIC [2]: > 25 µg/mL
MIC [3]: > 25 µg/mL
MIC [4]: > 25 µg/mL
MIC [5]: > 25 µg/mL
MIC [6]: > 25 µg/mL
MIC [7]: > 25 µg/mL
MIC [8]: > 25 µg/mL
MIC [9]: > 25 µg/mL
MIC [10]: > 25 µg/mL
MIC [11]: > 25 µg/mL
MIC [12]: > 25 µg/mL
MIC [13]: > 25 µg/mL
MIC [14]: > 25 µg/mL
MIC [15]: 25 µg/mL (≈ 53.8 µM)
MIC [16]: 25 µg/mL (≈ 53.8 µM)
MIC [17]: > 25 µg/mL
MIC [18]: > 25 µg/mL
EC50 [19]: 3.6 µg/mL (≈ 7.75 µM)
EC50 [20]: 6.9 µg/mL (≈ 14.8 µM)
EC50 [21]: 4.9 µg/mL (≈ 10.5 µM)
EC50 [22]: 4.7 µg/mL (≈ 10.1 µM)
EC50 [23]: 6.4 µg/mL (≈ 13.8 µM)
MIC [24]: 25 µg/mL (≈ 53.8 µM)
MIC [25]: > 25 µg/mL

C=C(CC[C@@H](C)[C@H]1C[C@@H](O)[C@@H]2[C@]1(C)CC[C@@H]1[C@@]3(C)CC[C@H](O)C[C@@H]3[C@@H](O)C[C@]12O)[C@H](C)CO [CERTONARDOSTEROL C]
MIC [1]: > 25 µg/mL
MIC [2]: > 25 µg/mL
MIC [3]: > 25 µg/mL
MIC [4]: > 25 µg/mL
MIC [5]: > 25 µg/mL
MIC [6]: > 25 µg/mL
MIC [7]: > 25 µg/mL
MIC [8]: > 25 µg/mL
MIC [9]: > 25 µg/mL
MIC [10]: > 25 µg/mL
MIC [11]: > 25 µg/mL
MIC [12]: > 25 µg/mL
MIC [13]: > 25 µg/mL
MIC [14]: > 25 µg/mL
MIC [15]: 25 µg/mL (≈ 53.8 µM)
MIC [16]: 25 µg/mL (≈ 53.8 µM)
MIC [17]: > 25 µg/mL
MIC [18]: > 25 µg/mL
EC50 [19]: 14.1 µg/mL (≈ 30.3 µM)
EC50 [20]: 20.2 µg/mL (≈ 43.5 µM)
EC50 [21]: 15.1 µg/mL (≈ 32.5 µM)
EC50 [22]: 13.3 µg/mL (≈ 28.6 µM)
EC50 [23]: 23.9 µg/mL (≈ 51.4 µM)
MIC [24]: 25 µg/mL (≈ 53.8 µM)
MIC [25]: > 25 µg/mL

C=C(CC[C@@H](C)[C@H]1C[C@@H](O)[C@H]2[C@@H]3C[C@H](O)[C@H]4C[C@@H](O)CC[C@]4(C)[C@H]3CC[C@@]21C)[C@H](C)CO [CERTONARDOSTEROL D]
MIC [1]: > 25 µg/mL
MIC [2]: > 25 µg/mL
MIC [3]: > 25 µg/mL
MIC [4]: > 25 µg/mL
MIC [5]: > 25 µg/mL
MIC [6]: > 25 µg/mL
MIC [7]: > 25 µg/mL
MIC [8]: > 25 µg/mL
MIC [9]: > 25 µg/mL
MIC [10]: > 25 µg/mL
MIC [11]: > 25 µg/mL
MIC [12]: > 25 µg/mL
MIC [13]: > 25 µg/mL
MIC [14]: > 25 µg/mL
MIC [15]: 25 µg/mL (≈ 55.7 µM)
MIC [16]: 25 µg/mL (≈ 55.7 µM)
MIC [17]: > 25 µg/mL
MIC [18]: > 25 µg/mL
EC50 [19]: 5.3 µg/mL (≈ 11.8 µM)
EC50 [20]: 8.5 µg/mL (≈ 18.9 µM)
EC50 [21]: 5.5 µg/mL (≈ 12.3 µM)
EC50 [22]: 4.8 µg/mL (≈ 10.7 µM)
EC50 [23]: 9.6 µg/mL (≈ 21.4 µM)
MIC [24]: 25 µg/mL (≈ 55.7 µM)
MIC [25]: > 25 µg/mL

C=C(CC[C@@H](C)[C@H]1C[C@H](O)[C@H]2[C@@H]3C[C@@H](O)[C@H]4C[C@@H](O)CC[C@]4(C)[C@H]3CC[C@@]21C)[C@H](C)CO [CERTONARDOSTEROL E]
MIC [1]: > 25 µg/mL
MIC [2]: > 25 µg/mL
MIC [3]: > 25 µg/mL
MIC [4]: > 25 µg/mL
MIC [5]: > 25 µg/mL
MIC [6]: > 25 µg/mL
MIC [7]: > 25 µg/mL
MIC [8]: > 25 µg/mL
MIC [9]: > 25 µg/mL
MIC [10]: > 25 µg/mL
MIC [11]: > 25 µg/mL
MIC [12]: > 25 µg/mL
MIC [13]: > 25 µg/mL
MIC [14]: > 25 µg/mL
MIC [15]: > 25 µg/mL
MIC [16]: > 25 µg/mL
MIC [17]: > 25 µg/mL
MIC [18]: > 25 µg/mL
EC50 [19]: 3.9 µg/mL (≈ 8.69 µM)
EC50 [20]: 4.9 µg/mL (≈ 10.9 µM)
EC50 [21]: 4.1 µg/mL (≈ 9.14 µM)
EC50 [22]: 4.1 µg/mL (≈ 9.14 µM)
EC50 [23]: 4.2 µg/mL (≈ 9.36 µM)
MIC [24]: 25 µg/mL (≈ 55.7 µM)
MIC [25]: > 25 µg/mL
